Reference: patent US10280134B1, “Potent cytotoxic agent against human hepatocellular carcinoma cell line based on 2-aryl hydrazonopropanal pharmacophore” (King Abdulaziz University, priority 2018, dated 2019)
In brackets after ≈: the same amount, converted by molar mass. Like-named read-outs stand apart in the source and are kept apart here.

Columns and labels:
[1] = test system: hepatocellular carcinoma cell line HEPG2; assay: MTT cytotoxicity assay on human hepatocellular carcinoma cell line HePG2; type: cell-based; conditions: for Remarks (% lethality at 100 ppm): HEPG2, at 100 ppm; for IC50 / IC90: Homo sapiens; for IC90: read-out: IC90: Lethal concentration of the sample which causes the death of 90% of cells in 48 hrs
Procedure: Cell viability was assessed by the mitochondrial dependent reduction of yellow MTT (3-(4,5-dimethylthiazol-2-yl)-2,5-diphenyl tetrazolium bromide) to purple formazan; Mossman, et al., id.
All procedures were done in a sterile area using a Laminar flow cabinet biosafety class II level (Baker, SG403INT, Sanford, Me., USA).
(§1) Cells were batch cultured for 10 days, then seeded at concentration of 10×10^3 cells/well in fresh complete growth medium in 96-well microtiter plastic plates at 37° C. for 24 h under 5% CO2 using a water jacketed Carbon dioxide incubator (Sheldon, TC2323, Cornelius, Oreg., USA). […] To stop the reaction and dissolving the formed crystals, 200 μL of 10% Sodium dodecyl sulphate (SDS) in deionized water was added to each well and incubated overnight at 37° C.
(§2) A statistical significance was tested between samples and negative control (cells with vehicle) using independent t-test by SPSS 11 program. DMSO is the vehicle used for dissolution of plant extracts and its final concentration on the cells was less than 0.2%. The percentage of change in viability was calculated according to the formula: ((Reading of extract/Reading of negative control)−1)×100.
Samples Tested Against the Human Tumor Cell Line(s): HePG 2 a Human Hepatocellular Carcinoma Cell Line.

[2] = test system: BJ1 (Normal Skin Fibroblast); assay: MTT cytotoxicity assay on normal human fibroblast cell line BJ1; type: cell-based; conditions: for Remarks (% lethality at 100 ppm): BJ1 normal skin fibroblast, 48 hrs; for IC50 / IC90: Homo sapiens, Skin fibroblast, 48 h; for IC50: read-out: IC50: Lethal concentration of the sample which causes the death of 50% of cells in 48 hrs; for IC90: read-out: IC90: Lethal concentration of the sample which causes the death of 90% of cells in 48 hrs
Procedure: The activity of the test compounds on a non-cancerous, normal human fibroblast cell line, BJ1, was assessed by the mitochondrial dependent reduction of yellow MTT (3-(4,5-dimethylthiazol-2-yl)-2,5-diphenyl tetrazolium bromide) to purple formazan; Mosmann T. Rapid colorimetric assays for cellular growth and survival: Application to proliferation and cytotoxicity assays. J Immunol Methods.
All procedures were done in a sterile area using a Laminar flow cabinet biosafety class II level (Baker, SG4031NT, Sanford, Me., USA).
as §1, §2
Data Analysis of Cytotoxic Activity Test. Sample Testing Against the Normal Human Epithelial Cell Line: BJ1 (Normal Skin Fibroblast).

[3] = HEPG2, MTT, 48 hrs, 100 to 0.78 μg/ml, read-out: IC50: Lethal concentration of the sample which causes the death of 50% of cells in 48 hrs
[4] = HEPG2, MTT, 48 hrs, 100 to 0.78 μg/ml

| Structure (SMILES) | Remarks (% lethality at 100 ppm) ([1]; 48 hrs) [% at 100 ppm] | IC50 [1, 3] [µg/mL] | IC90 [1, 4] [µg/mL] | Remarks (% lethality at 100 ppm) [2] [% at 100 ppm] | IC50 [2] [µg/mL] | IC90 [2] [µg/mL] | IC50 ([1]; HEPG2, positive control, Table 3, Mw = 579.99, read-out: IC50 (positive control)) [µM] | safety on normal human cell line (in words) ([2]; normal human epithelial cell line (BJ1)) |
| --- | --- | --- | --- | --- | --- | --- | --- | --- |
| COC(=O)c1ccccc1N/N=C(\C=O)C(=O)c1cccs1 [Compound 3] | 100 | 14.7 | 26 (≈ 82.2 µM) | 80 | 61 (≈ 193 µM) | 105 (≈ 332 µM) |  |  |
| COC(=O)c1ccccc1N/N=C(\C=O)C(C)=O [Compound 2] | 100 | 15.7 | 28.3 (≈ 114 µM) | 100 | 16.9 (≈ 68.1 µM) | 29.1 (≈ 117 µM) |  |  |
| COc1cccc2c1C(=O)c1c(O)c3c(c(O)c1C2=O)C[C@@](O)(C(=O)CO)C[C@@H]3O[C@H]1C[C@H](N)[C@H](O)[C@H](C)O1 [Doxorubicin, doxorubicin, reference compound] |  |  |  |  |  |  | 37.8 |  |
| COC(=O)c1ccccc1N/N=C(\C=O)C(=O)c1ccccc1 [Compound 1] | 95.3 | 45.5 | 77.3 (≈ 249 µM) | 41.5 |  |  |  | substantially safe |
